For assay [1], the system named is mice subjected to traumatic brain injury (TBI). Briefly: Traumatic brain injury (TBI) in mice, Western blot analysis for GFAP. The format is in vivo, C57BL/6 mice. The note with it: for efficacy in the mouse TBI model: summary statement, FIG. 12; for GFAP expression in brain (GFAP/actin, Western blot): 7 days post-injury, vs TBI untreated. As to the method:
Animals and traumatic brain injury (TBI): TBI was performed with a controlled closed skull injury model as described in […] al. 2012 (J. Neurotrauma 30, 55-66). Following the method described therein, a pneumatic impact device was used to generate a moderate TBI leaving the skull and dura matter intact. To achieve this, C57BL/6 mice were anesthetized with isoflurane (3% induction, 1% maintenance) in 100% oxygen. A body temperature of 37° C. was maintained using a temperature-controlled heated surgical table. A small midline incision was made on the scalp using aseptic surgical techniques. A 5 mm stainless steel disc was positioned on the skull and fixed using superglue on the right parietal bone between bregma and lamda over the somatosensory cortex. The mouse was then positioned on a stage directly under the pneumatic impact tip. […] Scalp incisions were closed using 4-0 nylon braided suture and antibiotic ointment applied to the incision. Mice were placed in a Thermo-Intensive Care Unit (Braintree Scientific model FV-1; 37° C.; 27% 02) and monitored until fully awake and moving freely. […] Western Blot Analysis for GFAP: At selected survival times, mice were anesthetized under isoflurane and sacrificed. The brain was removed and placed on ice for dissection into impacted and non-impacted brain hemispheres. […] The homogenate was transferred to a 2 mL tube and centrifuged at 1000 g for 10 minutes at 4° C. and the supernatant was collected and analyzed. Protein concentration was determined by the BCA assay using a 1:50 dilution. 100 μg of protein was removed as an aliquot for each sample and Laemmli buffer containing β-mercaptoethanol added and the sample placed in a heat block for 3 minutes at 95° C. Samples were loaded on a 12% gel and ran at 80 V for 20 minutes followed by 40 minutes at 130 V. Samples were transferred to nitrocellulose membrane at 100 V for 1 hour. The membrane was blocked with 5% milk in TBS-T for 30 minutes. GFAP (1:1000-Imgenex IMG-5083-A) was added and placed at 4° C. overnight. The membrane was washed with TBS-T three times for 10 minutes. Secondary antibody for GFAP (Donkey anti-rabbit HRP conjugated (ImmunoJackson Laboratories; 711-035-152; 1:20000) was applied at room temperature for 1 hour. The membranes were washed with TB S-T for 15 minutes (3 times) and developed using the Western Lightning Plus-ECL kit (PerkinElmer, Inc.) following manufacturer's directions.

Another assay has as its system mice subjected to stroke. Briefly: Photothrombosis-induced stroke in mice, TTC-stained brain infarction size. Type of assay: in vivo, C57Bl/6 mice. The note with it: for efficacy in the mouse photothrombotic stroke model: summary statement; for size of brain infarctions in mice pretreated with A3 receptor antagonist MRS1523: MRS1523 2 mg/kg ip at 0 and 2 hour, treatment within 30 minutes of clot formation; for size of brain infarctions in mice pretreated with A3 receptor antagonist MRS1523 / size of the brain infarction (TTC staining): 24 hours; for size of the brain infarction (TTC staining): photothrombotic stroke mice, vs vehicle. As to the method:
Photothrombosis-induced Stroke: Photothrombosis was performed as described in Zheng et al 2010 (PloS One 5 (12): e14401). In brief, Rose Bengal is a fluorescent dye that when injected into the vasculature and excited, generates singlet oxygen that damages the endothelial wall and induces a local thrombosis (clot). Using this technique, mice were given a 0.1 mL tail-vein injection of sterilized Rose Bengal (RB, Sigma, U.S.A.) in artificial cerebral spinal fluid (aCSF). The RB concentration was 20 mg/mL. A cortical region was centered in the imaging field and illuminated with a green laser (543 nm, 5 mW) using a 0.8-NA 40× water-immersion objective (Nikon, Tokyo). The clot formation was monitored in real time until the targeted vessel or downstream capillaries were firmly occluded. Stable clots were subsequently identified by a non-fluorescent vessel segmentation ending with highly fluorescent regions. […] Treatments, MRS4322 (0.16 mg/kg; 0.5 μmol/kg) or MRS2365 (0.24 mg/kg; 0.5 μmol/kg) were introduced via intraperitoneal injections (i.p.). For experiments with A3 receptor antagonist MRS1523, mice were administered intraperitoneal injections (2 mg/kg) at the 0 and 2 hour timepoints to ensure receptor antagonism throughout the course of the study.
Animals and Photothrombosis-induced Stroke: Stroke was performed as described in Zheng et al 2010 (PloS One 5 (12): e14401). Female C57Bl/6 mice (4-6 months) were used in this study. From the methods of this manuscript: Mice were anesthetized at 3% isoflurane with 100% oxygen and subsequently maintained at 1% isoflurane through a nosecone. Depth of anesthesia was monitored and regulated according to vital signs, pinch withdrawal and eye blinks. Body temperature was maintained at 37° C. by a feedback-controlled heating pad (Gaymar T/Pump). Vital signs including oxygen saturation, respiratory rate, and heart rate were continuously monitored by using the MouseOx system (STARR Life Sciences). The hair on each mouse's head was trimmed and a small incision was made in the scalp to expose the skull. A custom-made stainless steel plate was glued to the skull with VetBond Tissue Adhesive (3M, St Paul, MN). A cranial thinned-skull imaging window was created over the right primary somatosensory cortex (˜1.5 mm posterior to Bregma and 2 mm lateral from midline) depending on the experiment. In brief, a large region of the skull was first thinned with the electric drill and then further thinned with a surgical blade. The final thickness of the thinned skull was approximately 50 μm. After the cranial imaging window was created, mice were transferred to microscope stage and used for photothrombosis or imaging experiments. For the repeat imaging experiments, the plate was carefully detached from the skull and the scalp was sutured (Ethicon 6-0 sild suture). After each experiment, the mice were either returned to cages until the next timepoint or sacrificed. All procedures were approved by the Institutional Animal Care and Use Committee (IACUC) at University of Texas Health Science Center at San Antonio. Thirty minutes following stroke or sham (uninjured), mice were treated with either vehicle (saline) or drugs (MRS4322, MRS2365, MRS5698 or Cl-IBMECA).
Post photothrombotic infarction evaluation. The size of cerebral infarcts was evaluated using 2,3,5-Triphenyltetrazolium chloride (TTC) staining as described in Zheng et al 2010 (PloS One 5 (12): e14401). In brief, RB-induced lesions in brain slices were stained with TTC. TTC is a colorless dye that stains healthy brain tissue red when reduced by the mitochondrial enzyme succinyl dehydrogenase (Bederson J B et al., 1986). The absence of staining in necrotic tissue is then used to define the area of a brain infarction. Mice were sacrificed by cervical dislocation, their brains removed and then placed in ice cold HBSS for 3 minutes. The brain was subsequently transferred to a brain mold (KOPF), sliced into 1 mm sections and immersed in 2% TTC (5 min) at 37° C. […]

The mark [2] stands for this setting: TBI mice, treated 30 min post-TBI, approximately 0.5 μmol/kg.
[3] abbreviates: 0.5 μmol/kg ip within 30 minutes of clot formation.

Data on three compounds can be found in patent publication US12239654B2, “Compounds and methods for treating neurological and cardiovascular conditions” (Astrocyte Pharmaceuticals, Inc., priority 2016, dated 2025).

“Also recorded” adds a separate entry of the source.

Regarding `CNC(=O)[C@H]1O[C@@H](n2cnc3c(NCc4cccc(I)c4)nc(Cl)nc32)[C@H](O)[C@@H]1O` [Cl-IB-MECA, 2-Chloro-N^6-(3-iodobenzyl)-adenosine-5′-N-methyluronamide, reference compound], the “efficacy in the mouse TBI model” value in assay [1] was “weakly active”. For the same compound, the “efficacy in the mouse photothrombotic stroke model” value in the assay with mice subjected to stroke is “inactive”.

`CSc1nc(N)c2ncn([C@H]3[C@H](O)[C@H](O)[C@]4(COP(=O)(O)OP(=O)(O)O)C[C@H]34)c2n1` [MRS2365]: the “GFAP expression in brain (GFAP/actin, Western blot)” value in assay [1] (setting [2]) is recorded as “significantly lower; also recorded: decreased”. Also, in the assay on mice subjected to stroke, the “size of brain infarctions in mice pretreated with A3 receptor antagonist MRS1523” value is on record as “not reduced”. Moreover, the “size of the brain infarction (TTC staining)” value (from here on “size of the brain infarction”) in the assay on mice subjected to stroke (setting [3]) is “significantly reduced”.

For `CSc1nc(N)c2ncn([C@H]3[C@H](O)[C@H](O)[C@]4(CO)C[C@H]34)c2n1` [MRS4322], in assay [1] (setting [2]), the “GFAP expression in brain (GFAP/actin, Western blot)” value is given as “significantly lower; also recorded: decreased”. Also, the “GFAP levels in plasma relative to actin (Western blot)” value in assay [1] (TBI mice, treated 30 min post-TBI, approximately 0.5 μmol/kg, day 7, vs TBI untreated) was “significantly reduced”. Besides, the “efficacy in the mouse TBI model” value in assay [1] is given as “significant efficacy”. In addition, in the assay with mice subjected to stroke, the “size of brain infarctions in mice pretreated with A3 receptor antagonist MRS1523” value was “not reduced; also recorded: reversed by MRS1523” and the “efficacy in the mouse photothrombotic stroke model” value is on record as “significant efficacy”. For the same compound, the “size of the brain infarction” value in the assay on mice subjected to stroke (setting [3]) is reported as “significantly reduced; also recorded: reduced the effects of stroke infarction”. The “size of the brain infarction” value with mice subjected to stroke (100 ul of 100 uM ip within 30 minutes of clot formation) is “significantly reduced”.
